Measured values from patent US20050075371A1, “Methods and compositions for the oral administration of prodrugs of proton pump inhibitors” (ALLERGAN, INC., priority 2003, published 2005).

Key:
[1] = Systemic half-life after oral or intravenous administration in dogs; format: in vivo, dogs (beagle); settings: for Dog T1/2 Prodrug / Dog T1/2 PPI / half-life: oral solution, unit inferred; for Dog T1/2 Prodrug: half-life of intact prodrug, NC = plasma concentration of prodrug too low to calculate half-life, or undetected; for Dog T1/2 PPI / half-life: systemic half-life of the proton pump inhibitor; for t1/2 (systemic half-life in dogs after oral administration): Table 2D; for half-life: beagle, dog, blood, po, read-out: Dog T1/2 PPI (converted)
Method: (§1) Blood concentrations of the compounds omeprazole, lansoprazole, pantoprazole, rabeprazole, and test compounds were quantified using an achiral liquid chromatography tandem mass spectrometry method (LC-MS/MS). Systemic pharmacokinetic parameters were determined for omeprazole or lansoprazole using non-compartmental analysis in Watson® version 6.3, available from InnaPhase Corporation, Philadelphia, Pa.

Caco-2 cells = assay: Membrane permeability (Papp) across Caco-2 cell monolayer, apical to basolateral; format: in vitro ADME; settings: Caco-2, apical to basolateral, 10 μM, 37° C.
Method: Determination of membrane permeability in all examples described herein was accomplished by the following procedure. This procedure is also used to determine whether a given prodrug falls within the scope of those claims given herein which relate to membrane permeability.
Caco-2 cells were seeded on Costar™ 12 mm diameter, 0.4 μm pore size transwell filters, and were cultured at 37° C., 5% CO2 in a humidified tissue culture chamber.
DMEM was equilibrated as a transport buffer in 37° C. water bath an hour before experiment. The cells were then equilibrated in transport buffer for 1 hr at 37° C.
Dosing solution (10 μM) was prepared by adding a 20 μL aliquot of a 10 mM stock solution of the prodrug to 20 mL of transport buffer.
Transport across Caco-2 cell monolayer was measured at 37° C., in the apical to basolateral direction (n=3).
Transport buffer was removed from both apical and basolateral compartment of filters. Dosing solution (0.2 mL) was added to the apical compartment of the cell layers on transwell filters, and 0.8 ml fresh pre-warmed transport buffer was added to basolateral compartment. Timing was started for transport, and at 5, 20, and 60 min after transport started, sample fluid (400 μL) was collected from the basolateral compartment. Fresh transport buffer (400 μL) was added back to the basolateral compartment, and the fluid was thoroughly mixed.
Transport samples, dosing solution, and standards(100 μL) each were mixed with 100 μl of a 500 ng/ml internal standard (Lansoprazole-D) for LC-MS/MS analysis, and part of each sample (100 μL) was vortexed and transferred into glass LC-MS/MS vials for analysis.
The apparent permeability coefficient (Papp, cm/sec), otherwise known herein as the membrane permeability, is determined from the following relationship: Papp=J/(ACo) where J (pmol/min) is the transport rate, meaning the rate of prodrug movement through the cell layer, A (cm^2) is the filter surface area, and Co (μM) is the initial dosing concentration.
The transport rate J, is calculated as the slope of the linear regression fit for the transport amount over time data using Microsoft Excel® 97 SR-2 (Microsoft Corp. Redmond, Wash.).
Lucifer yellow (LY) was used as a paracellular permeability reference standard to determine integrity of cell layers used in the experiments. LY transport in the apical to basolateral direction was carried out in the same manner as described above. Fluorescence level in basolateral fluid sampled at 5, 20, and 60 min post dose was determined using Fluostar Galaxy (BMG Labtechnologies, Durham, N.C.) at excitation/emission wavelengths of 485/520 nm. A standard curve covering the range from 0.002 to 0.5 mg/mL is constructed to quantify the amount of LY in the transport sample to calculate permeability coefficient (Papp).

[2] = Systemic half-life after oral or intravenous administration in rats; format: in vivo, rats (Sprague-Dawley); settings: rats, oral solution; for Rat T1/2 Prodrug: half-life of intact prodrug, NC = plasma concentration of prodrug too low to calculate half-life, or undetected
Method: as §1

[3] = systemic half-life of the proton pump inhibitor, unit inferred

Structure (SMILES)	Dog T1/2 Prodrug [1]	Dog T1/2 PPI [1]	Rat T1/2 PPI [2, 3]	other results
COc1ccc2c(c1)nc([S+]([O-])Cc1ncc(C)c(OC)c1C)n2S(=O)(=O)c1c(C)cc(OCC(=O)O)cc1C (centres unmarked) [Compound 2]	6.78 min	96.6 min		t1/2 (systemic half-life in dogs after oral administration) [1]: 96 min; Permeability (Caco-2 cells): 0.054 ×10⁻⁶ cm/s
COc1ccc2c(c1)nc([S+]([O-])Cc1ncc(C)c(OC)c1C)n2S(=O)(=O)c1ccc(OCC(C)(C)C(=O)O)cc1 (centres unmarked) [Compound 3]	18.7 min	48.8 min	106 min	t1/2 (systemic half-life in dogs after oral administration) [1]: 48.6 min; Permeability (Caco-2 cells): 0.38 ×10⁻⁶ cm/s
COc1ccc2c(c1)nc([S+]([O-])Cc1ncc(C)c(OC)c1C)n2S(=O)(=O)c1c(C)cc(OCC(C)(C)C(=O)O)cc1C (centres unmarked) [Compound 4]	75.6 min	50.2 min	42.5 min	t1/2 (systemic half-life in dogs after oral administration) [1]: 50.4 min; Permeability (Caco-2 cells): 0.52 ×10⁻⁶ cm/s; Rat T1/2 Prodrug ([2]; unit inferred): 20.5 min
COc1ccc2c(c1)nc([S+]([O-])Cc1ncc(C)c(OC)c1C)n2S(=O)(=O)c1ccc(CC(=O)O)cc1 (centres unmarked) [Compound 5]	16.1 min	61.8 min	102 min	t1/2 (systemic half-life in dogs after oral administration) [1]: 60 min; Permeability (Caco-2 cells): 0.17 ×10⁻⁶ cm/s
COc1ccc2c(c1)nc([S+]([O-])Cc1ncc(C)c(OC)c1C)n2S(=O)(=O)c1cccc(C(=O)O)c1 (centres unmarked) [Compound 6]	18.2 min	115 min	116 min	t1/2 (systemic half-life in dogs after oral administration) [1]: 114 min; Permeability (Caco-2 cells): 0.067 ×10⁻⁶ cm/s
Cc1c(OCC(F)(F)F)ccnc1C[S+]([O-])c1nc2ccccc2n1S(=O)(=O)c1cccc(C(=O)O)c1 (centres unmarked) [Compound 7]	12.4 min	53.6 min	116 min	t1/2 (systemic half-life in dogs after oral administration) [1]: 53.4 min; Permeability (Caco-2 cells): 0.16 ×10⁻⁶ cm/s
COc1ccc(S(=O)(=O)n2c([S+]([O-])Cc3nccc(OCC(F)(F)F)c3C)nc3ccccc32)cc1C(=O)O (centres unmarked) [Compound 8]		64.8 min	108 min	t1/2 (systemic half-life in dogs after oral administration) [1]: 66 min; Permeability (Caco-2 cells): 0.23 ×10⁻⁶ cm/s
Cc1c(OCC(F)(F)F)ccnc1C[S+]([O-])c1nc2ccccc2n1S(=O)(=O)c1ccc(CC(=O)O)cc1 (centres unmarked) [Compound 9]		53.6 min	20.5 min	t1/2 (systemic half-life in dogs after oral administration) [1]: 53.4 min; Permeability (Caco-2 cells): 0.34 ×10⁻⁶ cm/s
Cc1c(OCC(F)(F)F)ccnc1C[S+]([O-])c1nc2ccccc2n1S(=O)(=O)c1ccc(OCC(=O)O)cc1 (centres unmarked) [Compound 10]		59.3 min		
Cc1c(OCC(F)(F)F)ccnc1C[S+]([O-])c1nc2ccccc2n1S(=O)(=O)c1ccc(OCC(C)(C)C(=O)O)cc1 (centres unmarked) [Compound 11]		52.4 min	56 min	
Cc1c(OCC(F)(F)F)ccnc1C[S+]([O-])c1nc2ccccc2n1S(=O)(=O)c1ccc(CC(=O)O)c(CC(=O)O)c1 (centres unmarked) [Compound 12]		55.9 min		
Cc1ccc(C(=O)O)cc1S(=O)(=O)n1c([S+]([O-])Cc2nccc(OCC(F)(F)F)c2C)nc2ccccc21 (centres unmarked) [Compound 13]	7.32 min	106 min	141 min	
COc1ccc(C(=O)O)cc1S(=O)(=O)n1c([S+]([O-])Cc2nccc(OCC(F)(F)F)c2C)nc2ccccc21 (centres unmarked) [Compound 14]	7.08 min	83.4 min	32.2 min	
Cc1c(OCC(F)(F)F)ccnc1C[S+]([O-])c1nc2ccccc2n1S(=O)(=O)c1ccc(C(=O)O)c(OCC(=O)O)c1 (centres unmarked) [Compound 16]		60 min	112 min	
Cc1cc(OCC(=O)O)cc(C(C)C)c1S(=O)(=O)n1c([S+]([O-])Cc2nccc(OCC(F)(F)F)c2C)nc2ccccc21 (centres unmarked) [Compound 17]	89.4 min	67.8 min		
Cc1c(OCC(F)(F)F)ccnc1C[S+]([O-])c1nc2ccccc2n1S(=O)(=O)c1ccc(C(=O)O)cc1 (centres unmarked) [Compound 18]	5.39 min	54.5 min		
Cc1ccc(S(=O)(=O)n2c([S+]([O-])Cc3nccc(OCC(F)(F)F)c3C)nc3ccccc32)cc1CCC(=O)O (centres unmarked) [Compound 19]	110 min	29 min		
COC(=O)COc1ccc(S(=O)(=O)n2c([S+]([O-])Cc3ncc(C)c(OC)c3C)nc3cc(OC)ccc32)cc1 (centres unmarked) [Compound 20]		162 min		

Structure (SMILES)	Dog T1/2 Prodrug [1]	Dog T1/2 PPI [1]	Rat T1/2 PPI [2, 3]	other results
COc1ccc2c(c1)nc([S+]([O-])Cc1ncc(C)c(OC)c1C)n2S(=O)(=O)c1ccc(C(=O)O)c(C(=O)O)c1 (centres unmarked) [Compound 22]		233 min		
COc1ccc2c(c1)nc([S+]([O-])Cc1ncc(C)c(OC)c1C)n2S(=O)(=O)c1ccc(OCC(=O)O)c(C(=O)O)c1 (centres unmarked) [Compound 23]		73.2 min	163 min	
COc1ccc2c(c1)nc([S+]([O-])Cc1ncc(C)c(OC)c1C)n2S(=O)(=O)c1ccc(OCC(=O)O)c(OCC(=O)O)c1 (centres unmarked) [Compound 24]		82.2 min	23 min	
COc1ccc2c(c1)nc([S+]([O-])Cc1ncc(C)c(OC)c1C)n2S(=O)(=O)c1cc(C(=O)O)ccc1C (centres unmarked) [Compound 27]	7.02 min	66 min	130 min	
COc1ccnc(C[S+]([O-])c2nc3cc(OC(F)F)ccc3n2S(=O)(=O)c2ccc(OCC(=O)O)cc2)c1OC (centres unmarked) [Compound 28]		157 min	87 min	
COc1ccnc(C[S+]([O-])c2nc3cc(OC(F)F)ccc3n2S(=O)(=O)c2cc(C(=O)O)ccc2C)c1OC (centres unmarked) [Compound 29]		57.5 min	60.6 min	
COCCCOc1ccnc(C[S+]([O-])c2nc3ccccc3n2S(=O)(=O)c2cccc(C(=O)O)c2)c1C (centres unmarked) [Compound 30]	67.2 min	29.5 min		
COCCCOc1ccnc(C[S+]([O-])c2nc3ccccc3n2S(=O)(=O)c2cc(C(=O)O)ccc2C)c1C (centres unmarked) [Compound 31]	50.6 min	51.3 min		
COCCCOc1ccnc(C[S+]([O-])c2nc3ccccc3n2S(=O)(=O)c2c(C)cc(OCC(=O)O)cc2C)c1C (centres unmarked) [Compound 32]	31.6 min	91.2 min		
COCCCOc1ccnc(C[S+]([O-])c2nc3ccccc3n2S(=O)(=O)c2ccc(C(=O)O)cc2)c1C (centres unmarked) [Compound 33]	44.8 min	53.6 min		
Cc1cc(OCC(=O)O)cc(C)c1S(=O)(=O)n1c([S+]([O-])Cc2nccc(OCC(F)(F)F)c2C)nc2ccccc21 (centres unmarked) [Compound 34]			66.6 min	
Cc1c(OCC(F)(F)F)ccnc1C[S+]([O-])c1nc2ccccc2n1S(=O)(=O)c1ccc(OCC(=O)O)c(OCC(=O)O)c1 (centres unmarked) [Compound 35]			110 min	
Cc1c(OCC(F)(F)F)ccnc1C[S+]([O-])c1nc2ccccc2n1S(=O)(=O)c1ccc(C(=O)O)cc1 (centres unmarked) [Compound 36]			23.3 min	
Cc1cc(C(=O)O)ccc1S(=O)(=O)n1c([S+]([O-])Cc2nccc(OCC(F)(F)F)c2C)nc2ccccc21 (centres unmarked) [Compound 37]			131 min	
COc1ccc(S(=O)(=O)n2c([S+]([O-])Cc3nccc(OCC(F)(F)F)c3C)nc3ccccc32)cc1CCC(=O)O (centres unmarked) [Compound 38]			85.8 min	Rat T1/2 Prodrug ([2]; unit not given): 1.04 (0.35)
COc1ccnc(C[S+]([O-])c2nc3ccc(OC(F)F)cc3[nH]2)c1OC (centres unmarked) [Pantoprazole, reference compound]				half-life [1]: 44.6 min; half-life ([2]; Sprague-Dawley, rat, blood, systemic half-life of the proton pump inhibitor, unit inferred, read-out: Rat T1/2 PPI (converted)): 41.8 min
COCCCOc1ccnc(C[S+]([O-])c2nc3ccccc3[nH]2)c1C (centres unmarked) [Rabeprazole, reference compound]				half-life [1]: 22.1 min
